Source: patent US20230114728A1 (Venatorx Pharmaceuticals, Inc., priority 2019, published 2023)
In brackets after ≈: the same amount, converted by molar mass.

What was measured:
Assay type in all cases: cell-based
[1] = test system: E. coli D22; assay: Broth microdilution MIC in CAMHB; conditions: Escherichia coli; E. coli D22 (hyper-permeable); MHB; read-out: Minimum Inhibitory Concentration, E. coli D22
Summary of the method: (§1)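 CLSI broth microdilution in CAMHB: 2-fold compound dilutions inoculated at 2-8×10^5 CFU/mL from 3-5 h log-phase cultures. Incubated at 37 °C for 16-20 h (Enterobacteriaceae, Pseudomonas); MIC read visually as lowest concentration without growth. Strains include hyper-permeable and efflux-deficient mutants.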

[2] = test system: P. aeruginosa ATCC 35151; assay: Broth microdilution MIC in CAMHB; conditions: Pseudomonas aeruginosa, ATCC35151; MHB; hyper-permeable strain; read-out: Minimum Inhibitory Concentration, P. aeruginosa ATCC 35151
Summary of the method: as §1

[3] = test system: E. coli ATCC 25922; assay: Broth microdilution MIC in CAMHB; conditions: Escherichia coli, ATCC25922; E. coli ATCC 25922; MHB; read-out: Minimum Inhibitory Concentration, E. coli 25922
Summary of the method: as §1

[4] = test system: K. pneumoniae SI-117 producing VIM-1; assay: Broth microdilution MIC in CAMHB; conditions: Klebsiella pneumoniae, read-out: Minimum Inhibitory Concentration, K. pneumoniae SI-117
Summary of the method: as §1

[5] = test system: E. coli AG100A; assay: Broth microdilution MIC in CAMHB; conditions: Escherichia coli, read-out: Minimum Inhibitory Concentration, E. coli AG100A
Summary of the method: as §1

[6] = test system: N. gonorrhoeae WHO G; assay: Liquid broth MIC in Fastidious broth; conditions: Neisseria gonorrhoeae; N. gonorrhoeae strain WHO G; Fastidious broth; read-out: Minimum Inhibitory Concentration, N. gonorrhoeae WHO G
Summary of the method: (§2)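 Colonies were swabbed from chocolate agar after 24 h growth and standardised by optical density at 600 nm. Compounds were serially diluted twofold in Fastidious broth, and bacteria added to give 5×10^5 CFU/mL. After about 24 h at 36 °C in 5% CO2, the lowest concentration allowing under 10% growth was taken as MIC.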

[7] = test system: N. gonorrhoeae H041; assay: Liquid broth MIC in Fastidious broth; conditions: Neisseria gonorrhoeae, H041, read-out: Minimum Inhibitory Concentration, N. gonorrhoeae H041
Summary of the method: as §2

[8] = test system: N. gonorrhoeae WHO K; assay: Liquid broth MIC in Fastidious broth; conditions: Neisseria gonorrhoeae, read-out: Minimum Inhibitory Concentration, N. gonorrhoeae WHO K
Summary of the method: as §2

[9] = test system: N. gonorrhoeae FA1090; assay: Liquid broth MIC in Fastidious broth; conditions: Neisseria gonorrhoeae; N. gonorrhoeae strain FA1090; Fastidious broth; read-out: Minimum Inhibitory Concentration, N. gonorrhoeae FA1090
Summary of the method: as §2

[10] = test system: N. gonorrhoeae ATCC 49226; assay: Liquid broth MIC in Fastidious broth; conditions: Neisseria gonorrhoeae, ATCC49226; N. gonorrhoeae strain ATCC 49226; Fastidious broth; read-out: Minimum Inhibitory Concentration, N. gonorrhoeae ATCC 49226
Summary of the method: as §2

[11] = test system: N. gonorrhoeae WHO Q; assay: Liquid broth MIC in Fastidious broth; conditions: Neisseria gonorrhoeae, read-out: Minimum Inhibitory Concentration, N. gonorrhoeae WHO Q
Summary of the method: as §2

[12] = test system: N. gonorrhoeae WHO L; assay: Liquid broth MIC in Fastidious broth; conditions: Neisseria gonorrhoeae; N. gonorrhoeae strain WHO L; Fastidious broth; read-out: Minimum Inhibitory Concentration, N. gonorrhoeae WHO L
Summary of the method: as §2

[13] = test system: N. gonorrhoeae WHO Z; assay: Liquid broth MIC in Fastidious broth; conditions: Neisseria gonorrhoeae, read-out: Minimum Inhibitory Concentration, N. gonorrhoeae WHO Z
Summary of the method: as §2

| SMILES | MIC [1] [mg/L] | MIC [2] [mg/L] | MIC [3] [mg/L] | MIC [4] [mg/L] | MIC [5] [mg/L] | MIC [6] [mg/L] | MIC [7] [mg/L] | MIC [8] [mg/L] | MIC [9] [mg/L] | MIC [10] [mg/L] | MIC [11] [mg/L] | MIC [12] [mg/L] | MIC [13] [mg/L] |
| --- | --- | --- | --- | --- | --- | --- | --- | --- | --- | --- | --- | --- | --- |
| CCN1CCN(C(=O)NC(C(=O)N[C@H]2Cc3cccc(C(=O)O)c3OB2O)c2cc(F)c(C(=O)O)c(F)c2)C(=O)C1=O (stereo partly drawn) [Example 141, (3R)-3-(2-(4-carboxy-3,5-difluorophenyl)-2-(4-ethyl-2,3-dioxopiperazine-1-carboxamido)acetamido)-2-hydroxy-3,4-dihydro-2H-benzo[e][1,2]oxaborinine-8-carboxylic acid] | 2 to 4 (≈ 3.4 to 6.8 µM) | < 0.25 | 32 to 64 (≈ 54.4 to 109 µM) | > 128 | 2 to 4 (≈ 3.4 to 6.8 µM) | 0.25 to 0.5 (≈ 0.425 to 0.85 µM) | 4 to 8 (≈ 6.8 to 13.6 µM) | 1 to 2 (≈ 1.7 to 3.4 µM) | < 0.125 | 1 to 2 (≈ 1.7 to 3.4 µM) | 1 to 2 (≈ 1.7 to 3.4 µM) | 4 to 8 (≈ 6.8 to 13.6 µM) | 1 to 2 (≈ 1.7 to 3.4 µM) |
| NCCN1CCN(C(=O)N[C@H](C(=O)N[C@H]2Cc3cccc(C(=O)O)c3OB2O)c2cc(F)c(O)c(F)c2F)C(=O)C1=O (single isomer, unassigned) [Example 167] | 8 to 16 (≈ 13.5 to 27 µM) | 0.5 to 1 (≈ 0.843 to 1.69 µM) | 32 to 64 (≈ 53.9 to 108 µM) | > 128 | 8 to 16 (≈ 13.5 to 27 µM) | 16 to 32 (≈ 27 to 53.9 µM) | > 64 | > 64 | 1 to 2 (≈ 1.69 to 3.37 µM) | 16 to 32 (≈ 27 to 53.9 µM) | > 64 | > 64 | > 64 |
| NCCN1CCN(C(=O)N[C@H](C(=O)N[C@H]2Cc3cccc(C(=O)O)c3OB2O)c2cc(F)c(O)c(F)c2)C(=O)C1=O (single isomer, unassigned) [Example 158] | 8 to 16 (≈ 13.9 to 27.8 µM) | 0.5 to 1 (≈ 0.869 to 1.74 µM) | > 128 | > 128 | 8 to 16 (≈ 13.9 to 27.8 µM) | 16 to 32 (≈ 27.8 to 55.6 µM) | > 64 | > 64 | 4 to 8 (≈ 6.95 to 13.9 µM) | > 64 | > 64 | > 64 | > 64 |
| CCN1CCN(C(=O)N[C@H](C(=O)N[C@H]2Cc3cccc(C(=O)O)c3OB2O)c2cc(F)c(C(=O)O)cc2Cl)C(=O)C1=O (single isomer, unassigned) [Example 149] | 8 to 16 (≈ 13.2 to 26.5 µM) | 2 to 4 (≈ 3.31 to 6.61 µM) | > 128 | > 128 | 32 to 64 (≈ 52.9 to 106 µM) | 16 to 32 (≈ 26.5 to 52.9 µM) | > 64 | > 64 | 4 to 8 (≈ 6.61 to 13.2 µM) | > 64 | > 64 | > 64 | 16 to 32 (≈ 26.5 to 52.9 µM) |
| CCN1CCN(C(=O)N[C@H](C(=O)N[C@H]2Cc3cccc(C(=O)O)c3OB2O)c2ccc(C(=O)O)c(F)c2F)C(=O)C1=O (single isomer, unassigned) [Example 139] | 2 to 4 (≈ 3.4 to 6.8 µM) | 0.5 to 1 (≈ 0.85 to 1.7 µM) | > 128 | > 128 | 8 to 16 (≈ 13.6 to 27.2 µM) | 1 to 2 (≈ 1.7 to 3.4 µM) | 4 to 8 (≈ 6.8 to 13.6 µM) | 4 to 8 (≈ 6.8 to 13.6 µM) | < 0.125 | 1 to 2 (≈ 1.7 to 3.4 µM) | 4 to 8 (≈ 6.8 to 13.6 µM) | 4 to 8 (≈ 6.8 to 13.6 µM) | 1 to 2 (≈ 1.7 to 3.4 µM) |
| CCN1CCN(C(=O)NC(C(=O)N[C@H]2Cc3cccc(C(=O)O)c3OB2O)c2cccc(CNS(N)(=O)=O)c2)C(=O)C1=O (stereo partly drawn) [Example 107, (3R)-3-(2-(4-ethyl-2,3-dioxopiperazine-1-carboxamido)-2-(3-((sulfamoylamino)methyl)phenyl)acetamido)-2-hydroxy-3,4-dihydro-2H-benzo[e][1,2]oxaborinine-8-carboxylic acid] | 8 to 16 (≈ 13 to 26 µM) | 8 to 16 (≈ 13 to 26 µM) | 32 to 64 (≈ 51.9 to 104 µM) | > 128 | 2 to 4 (≈ 3.24 to 6.49 µM) | 16 to 32 (≈ 26 to 51.9 µM) | > 64 | > 64 | 1 to 2 (≈ 1.62 to 3.24 µM) | > 64 | > 64 | > 64 | > 64 |
